In one assay the target is T1, BRAF V600E (Homo sapiens, UniProt P15056, V600E).
T1 construct: expressed in transfected cells
Kind of assay: Cellular assay of target protein degradation, T-Rex 293 cells stably transfected with HA-BRAF_V600E (HA immunofluorescence, high content imaging). The following applies: T-Rex 293 HA-BRAF V600E; for DC50: half maximal degradation, read-out: BRaf V600E DC50; for Dmax: maximum degradation observed. The class given is cell-based. On the procedure:
Protocol for a cellular assay of target protein degradation (T-Rex 293 cells). T-Rex 293 cells were purchased from Invitrogen (#R71007), and stably transfected with a pcDNA4/TO_HA-BRAF_V600E construct, using 400 ug Zeocin for selection. V600e cells are plated in Dulbecco's Modified Eagle Medium (DMEM; Gibco #11965118) containing 10% fetal bovine serum (FBS; Gibco #16000044) and 1 ng/mL doxycycline (Selleckchem #4163) at a density of 5,000 cells/well in 50 μl on poly-D-lysine (PDL) coated, black clear bottom 96-well plates (Corning #354640) and incubated for 24 hours at 37° C. with 5% C02. The following day 50 ul of tested compound was added at 2x concentration in DMEM with a final concentration ranging from 1 μM to 0.1 nM in 0.1% dimethylsulfoxide (DMSO), and incubated for 24 hours at 37° C. with 5% CO2. At the end of the experimental treatment, the media was flicked off and cells washed once with phosphate-buffered saline (PBS)++ (PBS with CaCl and MgCl) and gently replacing with 200 μl PBS++ per well. The PBS++ was removed and 50 uL 4% paraformaldehyde (PFA; EMS #15710) in PBS++ was added, and incubate at room temperature for 15 minutes. Cells were washed once with PBS++ and 50 uL 0.1% Triton X-100 (Fisher #BP151-500) in PBS++ was added. Plate was incubate for 5 minutes at room temperature. Cells were was once with PBS++. Cells were blocked with 100 uL Licor blocking buffer (Licor #927-50000) for 1 hour at room temperature. Next, 50 uL of HA antibody (CST #3724) at 1:1000 in Licor blocking buffer was added, and the plate incubate overnight at 4° C. The plates were parafilmed to prevent evaporation. Plate was washed three times with 200 uL PBS++. Fifty microliters of HCS secondary antibody solution [1:1000 Hoechst (Invitrogen #H3570), 1:1000 phalloidin (Invitrogen #A22287) and 1:5000 Alexa fluor (Invitrogen #A11008)] was added and incubated for 1 hour. Plate was wash three times with 200 uL PBS++, and imaged on a high content reader (ImageXpress Micro XLS, Molecular Devices).
(§1) The concentration of exemplary compound that leads to half maximal degradation (DC50) as well as the maximum degradation observed (Dmax, conventionally expressed as a percentage of control), which are below in Table 2 for the exemplary compounds of Table 1.

The next assay addresses T2, BRAF G466V (Homo sapiens, UniProt P15056, G466V).
T2 construct: expressed in transfected cells
Kind of assay: Cellular assay of target protein degradation, T-Rex 293 cells stably transfected with HA-BRAF G466V (HA immunofluorescence, high content imaging). The class given is cell-based. Particulars: T-Rex 293 HA-BRAF G466V; for DC50: half maximal degradation, read-out: BRaf G466V DC50; for Dmax: maximum degradation observed. On the procedure:
Protocol for a cellular assay of target protein degradation (T-Rex 293 cells). T-Rex 293 cells were purchased from Invitrogen (#R71007), and stably transfected with a pcDNA4/TO_HA-BRAF G466V construct, using 400 ug Zeocin for selection. G466V cells are plated in Dulbecco's Modified Eagle Medium (DMEM; Gibco #11965118) containing 10% fetal bovine serum (FBS; Gibco #16000044) and 0.75 ng/mL doxycycline (Selleckchem #4163) at a density of 5,000 cells/well in 50 μl on poly-D-lysine (PDL) coated, black clear bottom 96-well plates (Corning #354640) and incubated for 24 hours at 37° C. with 5% CO2. The following day 50 ul of tested compound was added at 2x concentration in DMEM with a final concentration ranging from 30 nM to 3 pM in 0.1% dimethylsulfoxide (DMSO), and incubated for 24 hours at 37° C. with 5% CO2. At the end of the experimental treatment, the media was flicked off and cells washed once with phosphate-buffered saline (PBS)++ (PBS with CaCl and MgCl) and gently replacing with 200 μl PBS++ per well. The PBS++ was removed and 50 uL 4% paraformaldehyde (PFA; EMS #15710) in PBS++ was added, and incubate at room temperature for 15 minutes. Cells were washed once with PBS++ and 50 uL 0.1% Triton X-100 (Fisher #BP151-500) in PBS++ was added. Plate was incubate for 5 minutes at room temperature. Cells were was once with PBS++. Cells were blocked with 100 uL Licor blocking buffer (Licor #927-50000) for 1 hour at room temperature. Next, 50 uL of HA antibody (CST #3724) at 1:1000 in Licor blocking buffer was added, and the plate incubate overnight at 4° C. The plates were parafilmed to prevent evaporation. Plate was washed three times with 200 uL PBS++. Fifty microliters of HCS secondary antibody solution [1:1000 Hoechst (Invitrogen #H3570), 1:1000 phalloidin (Invitrogen #A22287) and 1:5000 Alexa fluor (Invitrogen #A11008)] was added and incubated for 1 hour. Plate was wash three times with 200 uL PBS++, and imaged on a high content reader (ImageXpress Micro XLS, Molecular Devices).
as §1

T1 sequence (P15056 whole entry V600E): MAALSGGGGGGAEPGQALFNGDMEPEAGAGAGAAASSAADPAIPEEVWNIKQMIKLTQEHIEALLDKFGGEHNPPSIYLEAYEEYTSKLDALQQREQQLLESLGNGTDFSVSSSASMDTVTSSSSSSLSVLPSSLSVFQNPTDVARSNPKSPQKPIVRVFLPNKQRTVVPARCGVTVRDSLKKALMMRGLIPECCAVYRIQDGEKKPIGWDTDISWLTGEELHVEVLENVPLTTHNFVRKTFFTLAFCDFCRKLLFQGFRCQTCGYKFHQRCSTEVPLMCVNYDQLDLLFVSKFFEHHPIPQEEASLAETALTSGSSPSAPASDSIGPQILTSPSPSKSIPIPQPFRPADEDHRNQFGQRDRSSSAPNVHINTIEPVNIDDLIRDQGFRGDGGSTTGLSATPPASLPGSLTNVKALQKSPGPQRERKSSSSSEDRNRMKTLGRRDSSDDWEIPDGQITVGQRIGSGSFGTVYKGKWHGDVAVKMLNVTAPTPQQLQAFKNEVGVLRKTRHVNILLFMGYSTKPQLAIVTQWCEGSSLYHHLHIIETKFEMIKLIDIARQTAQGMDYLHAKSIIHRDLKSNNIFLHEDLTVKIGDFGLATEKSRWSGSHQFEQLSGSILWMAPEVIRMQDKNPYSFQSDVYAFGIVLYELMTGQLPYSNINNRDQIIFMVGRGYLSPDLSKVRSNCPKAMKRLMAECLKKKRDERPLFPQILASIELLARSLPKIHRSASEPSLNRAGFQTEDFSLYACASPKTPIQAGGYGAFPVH
T2 sequence (P15056 whole entry G466V): as the sequence (P15056 whole entry V600E) above, with G466V, E600V counted along it

As to `O=C1CCC(N2Cc3cc(N4CCC(CN5CCN(c6ncc(-c7cnc8[nH]cc(C(=O)c9c(F)ccc(NS(=O)(=O)N%10CC[C@@H](F)C%10)c9F)c8c7)cn6)CC5)CC4)ccc3C2=O)C(=O)N1` (stereo partly drawn) [Compound 18, (3R)-N-[3-(5-{2-[4-({1-[2-(2,6-dioxopiperidin-3-yl)-1-oxo-2,3-dihydro-1H-isoindol-5-yl]piperidin-4-yl}methyl)piperazin-1-yl]pyrimidin-5-yl}-1H-pyrrolo[2,3-b]pyridine-3-carbonyl)-2,4-difluorophenyl]-3-fluoropyrrolidine-1-sulfonamide], the DC50 (in general, the concentration giving 50% degradation) is 50 to 500 nM on BRAF V600E and under 1 nM on BRAF G466V. Besides, the Dmax (usually the largest share of the target that was removed) on BRAF V600E was over 70%; at BRAF G466V it was 35 to 70%.
As to `O=C1CCC(N2Cc3cc(N4CCC(F)(CN5CC6(C5)CN(c5ccc(-c7cnc8[nH]cc(C(=O)c9c(F)ccc(NS(=O)(=O)N%10CC[C@@H](F)C%10)c9F)c8c7)cc5)C6)CC4)ccc3C2=O)C(=O)N1` (stereo partly drawn) [Compound 19, (3R)-N-[3-(5-{4-[6-({1-[2-(2,6-dioxopiperidin-3-yl)-1-oxo-2,3-dihydro-1H-isoindol-5-yl]-4-fluoropiperidin-4-yl}methyl)-2,6-diazaspiro[3.3]heptan-2-yl]phenyl}-1H-pyrrolo[2,3-b]pyridine-3-carbonyl)-2,4-difluorophenyl]-3-fluoropyrrolidine-1-sulfonamide], at BRAF V600E, the DC50 was in the range of 5 to 50 nM and the maximal degradation (Dmax) is 35 to 70%. On BRAF G466V, the DC50 is 1 to 10 nM and the Dmax was 35 to 70%.
On to `COc1cc(N2CC3(C2)CN(CC2CCN(c4ccc(-c5cnc6[nH]cc(C(=O)c7c(F)ccc(NS(=O)(=O)N8CC[C@@H](F)C8)c7F)c6c5)cc4)CC2)[C@@H]3C)cc2c1C(=O)N(C1CCC(=O)NC1=O)C2` (stereo partly drawn) [Compound 20, (3R)-N-(3-{5-[4-(4-{[(1R)-6-[2-(2,6-dioxopiperidin-3-yl)-7-methoxy-1-oxo-2,3-dihydro-1H-isoindol-5-yl]-1-methyl-2,6-diazaspiro[3.3]heptan-2-yl]methyl}piperidin-1-yl)phenyl]-1H-pyrrolo[2,3-b]pyridine-3-carbonyl}-2,4-difluorophenyl)-3-fluoropyrrolidine-1-sulfonamide], for which the DC50 was 5 to 50 nM on BRAF V600E and under 1 nM at BRAF G466V. For the same compound, the Dmax on BRAF V600E and on BRAF G466V was 35 to 70% throughout.
On to `COc1cc(N2CC3(CN(CCc4ccc(-c5cnc6[nH]cc(C(=O)c7c(F)ccc(NS(=O)(=O)N8CC[C@@H](F)C8)c7F)c6c5)cc4)C3)C2)cc2c1C(=O)N(C1CCC(=O)NC1=O)C2` (stereo partly drawn) [Compound 21, (3R)-N-(3-{5-[4-(2-{6-[2-(2,6-dioxopiperidin-3-yl)-7-methoxy-1-oxo-2,3-dihydro-1H-isoindol-5-yl]-2,6-diazaspiro[3.3]heptan-2-yl}ethyl)phenyl]-1H-pyrrolo[2,3-b]pyridine-3-carbonyl}-2,4-difluorophenyl)-3-fluoropyrrolidine-1-sulfonamide], for which, on BRAF V600E, the DC50 was 5 to 50 nM and the Dmax is 35 to 70%. On BRAF G466V, the DC50 is 1 to 10 nM and the Dmax lay within 35 to 70%.
As to `COc1cc(CCCN2CC3(C2)CN(c2ccc(-c4cnc5[nH]cc(C(=O)c6c(F)ccc(NS(=O)(=O)N7CC[C@@H](F)C7)c6F)c5c4)cc2)C3)cc2c1C(=O)N(C1CCC(=O)NC1=O)C2` (stereo partly drawn) [Compound 22, (3R)-N-(3-{5-[4-(6-{3-[2-(2,6-dioxopiperidin-3-yl)-7-methoxy-1-oxo-2,3-dihydro-1H-isoindol-5-yl]propyl}-2,6-diazaspiro[3.3]heptan-2-yl)phenyl]-1H-pyrrolo[2,3-b]pyridine-3-carbonyl}-2,4-difluorophenyl)-3-fluoropyrrolidine-1-sulfonamide], the DC50 was 5 to 50 nM on BRAF V600E and under 1 nM at BRAF G466V. Also, the Dmax at BRAF V600E and on BRAF G466V was 35 to 70% in each case.
With `O=C1CCC(N2Cc3cc(N4CC[C@H]4COc4ccc(-c5cnc6[nH]cc(C(=O)c7c(F)ccc(NS(=O)(=O)N8CC[C@@H](F)C8)c7F)c6c5)cc4)ccc3C2=O)C(=O)N1` (stereo partly drawn) [Compound 23, (3R)-N-{3-[5-(4-{[(2S)-1-[2-(2,6-dioxopiperidin-3-yl)-1-oxo-2,3-dihydro-1H-isoindol-5-yl]azetidin-2-yl]methoxy}phenyl)-1H-pyrrolo[2,3-b]pyridine-3-carbonyl]-2,4-difluorophenyl}-3-fluoropyrrolidine-1-sulfonamide], the DC50 was over 500 nM at BRAF V600E and over 30 nM on BRAF G466V.
Consider `O=C1CCC(N2Cc3cc(N4CCC(CN5CCN(c6ccc(-c7cnc8[nH]cc(C(=O)c9c(F)ccc(NS(=O)(=O)N%10CC[C@@H](F)C%10)c9F)c8c7)cn6)CC5)CC4)ccc3C2=O)C(=O)N1` (stereo partly drawn) [Compound 25, (3R)-N-[3-(5-{6-[4-({1-[2-(2,6-dioxopiperidin-3-yl)-1-oxo-2,3-dihydro-1H-isoindol-5-yl]piperidin-4-yl}methyl)piperazin-1-yl]pyridin-3-yl}-1H-pyrrolo[2,3-b]pyridine-3-carbonyl)-2,4-difluorophenyl]-3-fluoropyrrolidine-1-sulfonamide], for which the DC50 at BRAF V600E is 5 to 50 nM; at BRAF G466V, under 1 nM. Further, the Dmax is 35 to 70% on BRAF V600E and over 70% on BRAF G466V.
The like results for `O=C1CCC(N2Cc3cc(N4CC5(CN(c6ccc(-c7cnc8[nH]cc(C(=O)c9c(F)ccc(NS(=O)(=O)N%10CC[C@@H](F)C%10)c9F)c8c7)cc6)C5)C4)ccc3C2=O)C(=O)N1` (stereo partly drawn) [Compound 26, (3R)-N-{3-[5-(4-{6-[2-(2,6-dioxopiperidin-3-yl)-1-oxo-2,3-dihydro-1H-isoindol-5-yl]-2,6-diazaspiro[3.3]heptan-2-yl}phenyl)-1H-pyrrolo[2,3-b]pyridine-3-carbonyl]-2,4-difluorophenyl}-3-fluoropyrrolidine-1-sulfonamide] were, in that order, over 500 nM, under 1 nM, over 70% and 35 to 70%.
For `O=C1CC[C@H](NC(=O)c2ccc(N3CCN(CCc4ccc(-c5cnc6[nH]cc(C(=O)c7c(F)ccc(NS(=O)(=O)N8CC[C@@H](F)C8)c7F)c6c5)cc4)CC3)cc2F)C(=O)N1` [Compound 27, 4-[4-[2-[4-[3-[2,6-difluoro-3-[[(3R)-3-fluoropyrrolidin-1-yl]sulfonylamino]benzoyl]-1H-pyrrolo[2,3-b]pyridin-5-yl]phenyl]ethyl]piperazin-1-yl]-N-[(3S)-2,6-dioxo-3-piperidyl]-2-fluoro-benzamide], at BRAF V600E, the 50% degradation concentration (DC50) was in the range of 5 to 50 nM and the Dmax is over 70%. Further, at BRAF G466V, the DC50 was 1 to 10 nM and the Dmax lay within 35 to 70%.
